Reference: US8835428B2, “Diacylglycerol acyltransferase inhibitors” (Piramal Enterprises Limited, priority 2008, dated 2014)

What follows are molecules tested against T1, hDGAT1 (Homo sapiens, UniProt O75907) (assay: In-vitro DGAT1 assay (hDGAT1 microsomes from Sf9 cells, 14C oleoyl CoA, triglyceride formation)). Conditions: At 10 μM.
T1 construct: host or cells: Sf9 insect cells (baculovirus); microsomal preparation
T1 sequence (O75907 1-488): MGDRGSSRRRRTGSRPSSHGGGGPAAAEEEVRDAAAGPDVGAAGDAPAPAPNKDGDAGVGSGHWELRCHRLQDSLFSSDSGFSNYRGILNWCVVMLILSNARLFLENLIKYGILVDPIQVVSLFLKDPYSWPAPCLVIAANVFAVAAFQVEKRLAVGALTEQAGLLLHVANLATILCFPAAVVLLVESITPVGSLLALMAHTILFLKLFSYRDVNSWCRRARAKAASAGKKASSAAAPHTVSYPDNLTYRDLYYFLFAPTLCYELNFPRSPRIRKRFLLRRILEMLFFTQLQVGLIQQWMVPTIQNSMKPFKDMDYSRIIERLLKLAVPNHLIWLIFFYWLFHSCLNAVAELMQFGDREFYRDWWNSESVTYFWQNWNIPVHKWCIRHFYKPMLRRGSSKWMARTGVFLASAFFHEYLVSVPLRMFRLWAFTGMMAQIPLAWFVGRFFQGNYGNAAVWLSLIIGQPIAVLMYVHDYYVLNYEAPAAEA
Format: biochemical
Description: In-vitro Protocol for DGAT1 Assay
Sf9 Culture and Treatment
Sf9 cells were grown in T25 flasks containing Graces's Insect media with 10% FBS with antibiotic (100 units/mL penicillin, 100 μg/mL streptomycin sulphate, 0.25 μg/mL Amptotericin B as Fungizone) grown in a 27° C. incubator:
hDGAT1ORF expression clone (RZPDo839C09146 in pDEST vector) was obtained from RZPD, Germany. hDGAT1 bacmid DNA was obtained by transformation of the hDGAT expression clone into DH10Bac E. coli competent cells. Approximately 1 μg of hDGAT1 bacmid DNA was infected into Sf9 cells with Cellfectin (Invitrogen) reagent. Following infection, Sf9 cells were incubated at 27° C. for 30 minutes. Five hours after infection, the media was replaced with growth media containing antibiotic (100 units/mL penicillin, 100 μg/mL streptomycin sulphate, 0.25 μg/mL Amptotericin B as Fungizone) and incubated at 27° C. for 72 hours. The supernatant containing the virus was centrifuged at 1500×g for 5 minutes, passed through 0.22 μm filter, and subsequently stored at 4° C. The virus was further amplified three more times by re-infection of Sf9 cells and the viral titer was determined by plaque assay.
Preparation of DGAT1 Microsomes from Sf9 Cells
Sf9 cells were seeded in spinner flasks on day 0 at a cell density of 1×10^6 and infected on day 1 with hDGAT1 baculovirus at a multiplicity of infection (MOI) of 5 and a cell density of 2×10^6. On day 3 (or 66-72 hours), cells were harvested and centrifuged at 2500×g for 10 minutes. Pellet was resuspended in lysis buffer (100 mM sucrose, 50 mM KCl, 40 mM KH2PO4, 30 mM EDTA, pH 7.2) and passed through 21-gauge needle approximately 10 times. The mixture was centrifuged at 12,000 rpm in a Sigma 12158-H rotor at 4° C. for 30 minutes. The supernatant was subjected to centrifugation at 35,000 rpm in a Beckman Ti-45 rotor at 4° C. for 1 hour. The resultant pellet containing the microsomes were resuspended overnight in 1 mL of lysis buffer and total protein concentration was estimated using Bradford Reagent. Microsomes were aliquoted and stored at −20° C.
Measurement of DGAT1 Activity
Frozen aliquots of hDGAT1 containing microsomes were thawed (5-10 mg/mL total protein) on ice and diluted to a working stock of 1 mg/mL with DGAT Assay Buffer (DAB). The DGAT reaction assay was performed by following the procedure described in U.S. Pat. No. 6,607,893 with some modifications that are described below.
Preparation of DGAT1 substrate mixture: 1 mL stock solution of DGAT1 substrate mixture contains (i) 5.6 μL of ^14C oleoyl CoA (16.8 nCi) and 35 μL 1,2-dioleoyl-sn-glycerol (409.5 μM) or (ii) 5.6 μL of ^14C oleoyl CoA (16.8 nCi) and 105 μL 1,2-dioleoyl-sn-glycerol (1228.5 μM) or (iii) 5.6 μL of ^14C oleoyl CoA (16.8 nCi) and 140 μL 1,2-dioleoyl-sn-glycerol (1638 μM).
1,2-sn-dioleoylglycerol substrate concentration in the 1 mL stock solution of DGAT1 substrate mixture was varied depending on the microsome concentration used in the assay reaction. 1,2-dioleoyl-sn-glycerol stock (19.5 mM) was prepared by dissolving 25 mg of 1,2-dioleoyl-sn-glycerol (Sigma, US) in 2060 μL of acetone. The assay was performed in duplicates in a reaction volume of 100 μL. The reaction volume consisted of: • (i) 27.5 μL of DGAT assay buffer (0.25M Sucrose, 1 mM EDTA (pH 8.0), 150 mM Tris-HCl, pH 7.4, 1.25 mg/mL, fatty acid free BSA), • (ii) 10 μL of compound, of present invention or standard (dissolved in DMSO and diluted to 10× with DAB and screened at 10 μM, 5 μM and 1 μM), • (iii) 60 μL DGAT1 substrate mixture taken from a 1 mL stock (16.8 nCi of ^14C oleoyl CoA and 409.5 μM or 1228.5 μM or 1638 μM of 1,2-dioleyl-sn-glycerol), • (iv) 2.5-10 μL of 1 mg/mL of microsomes (the amount of assay buffer was varied depending upon the concentration of microsome to make up the volume to 100 μL). Procedure:
The reaction was started by the addition of 2.5-10 μL of 1 mg/mL of microsomes (iv) to a mixture of (i), (ii) and (iii), vortexed and incubated at 37° C. for 10 minutes. […]

| Structure (SMILES) | inhibition at 10 µM [%] |
| --- | --- |
| O=C(O)c1cc(-c2cccc(Nc3nc4ccc(F)cc4s3)c2)no1 [Example 21, 3-[3-(6-Fluoro-benzothiazol-2-ylamino)-phenyl]-isoxazole-5-carboxylic acid] | 0 to 50 |
| COC(=O)[C@@H](NC(=O)c1cc(-c2cccc(Nc3nc4ccc(F)cc4s3)c2)no1)C(C)C [Example 22, (S)-2-({3-[3-(6-Fluoro-benzothiazol-2-ylamino)-phenyl]-isoxazole-5-carbonyl}-amino)-3-methyl-butyric acid methyl ester] | 0 to 50 |
| CC(C)[C@H](NC(=O)c1cc(-c2cccc(Nc3nc4ccc(F)cc4s3)c2)no1)C(=O)O [Example 23, (S)-2-({3-[3-(6-Fluoro-benzothiazol-2-ylamino)-phenyl]-isoxazole-5-carbonyl}-amino)-3-methyl-butyric acid] | 0 to 50 |
| COC(=O)[C@@H](NC(=S)c1cc(-c2cccc(Nc3nc4ccc(F)cc4s3)c2)no1)C(C)C [Example 24, (S)-2-({3-[3-(6-Fluoro-benzothiazol-2-ylamino)-phenyl]-isoxazole-5-carbothioyl}-amino)-3-methyl-butyric acid methyl ester] | 0 to 50 |
| CC(C)[C@H](NC(=S)c1cc(-c2cccc(Nc3nc4ccc(F)cc4s3)c2)no1)C(=O)O [Example 25, (S)-2-({3-[3-(6-Fluoro-benzothiazol-2-ylamino)-phenyl]-isoxazole-5-carbothioyl}-amino)-3-methyl-butyric acid] | 0 to 50 |
| COC(=O)[C@@H](NC(=NO)c1cc(-c2cccc(Nc3nc4ccc(F)cc4s3)c2)no1)C(C)C [Example 26, (S)-2-({3-[3-(6-Fluoro-benzothiazol-2-ylamino)-phenyl]-N-hydroxy-isoxazole-5-carboximidoyl}-amino)-3-methyl-butyric acid methyl ester] | 0 to 50 |
| COC[C@H](NC(=O)c1cc(-c2cccc(Nc3nc4ccc(F)cc4s3)c2)no1)C(=O)OC [Example 28, (S)-2-({3-[3-(6-Fluoro-benzothiazol-2-ylamino)-phenyl]-isoxazole-5-carbonyl}-amino)-3-methoxy-propionic acid methyl ester] | 0 to 50 |
| COC[C@H](NC(=S)c1cc(-c2cccc(Nc3nc4ccc(F)cc4s3)c2)no1)C(=O)O [Example 31, (S)-2-({3-[3-(6-Fluoro-benzothiazol-2-ylamino)-phenyl]-isoxazole-5-carbothioyl}-amino)-3-methoxy-propionic acid] | 0 to 50 |
| COC(=O)[C@@H]1CCCN1C(=O)c1cc(-c2cccc(Nc3nc4ccc(F)cc4s3)c2)no1 [Example 34, (S)-1-{3-[3-(6-Fluoro-benzothiazol-2-ylamino)-phenyl]-isoxazole-5-carbonyl}-pyrrolidine-2-carboxylic acid methyl ester] | 0 to 50 |
| O=C(O)[C@@H]1CCCN1C(=O)c1cc(-c2cccc(Nc3nc4ccc(F)cc4s3)c2)no1 [Example 35, (S)-1-{3-[3-(6-Fluoro-benzothiazol-2-ylamino)-phenyl]-isoxazole-5-carbonyl}-pyrrolidine-2-carboxylic acid] | 0 to 50 |
| O=C(O)[C@@H]1CCCN1C(=S)c1cc(-c2cccc(Nc3nc4ccc(F)cc4s3)c2)no1 [Example 37, (S)-1-{3-[3-(6-Fluoro-benzothiazol-2-ylamino)-phenyl]-isoxazole-5-carbothioyl}-pyrrolidine-2-carboxylic acid] | 0 to 50 |
| COC(=O)[C@H](NC(=O)c1cc(-c2ccc(Nc3nc4ccc(F)cc4s3)cc2)no1)C(C)C [Example 38, (R)-2-({3-[4-(6-Fluoro-benzothiazol-2-ylamino)-phenyl]-isoxazole-5-carbonyl}-amino)-3-methyl-butyric acid methyl ester] | 50 to 75 |
| COC(=O)[C@H](NC(=S)c1cc(-c2ccc(Nc3nc4ccc(F)cc4s3)cc2)no1)C(C)C [Example 39, (R)-2-({3-[4-(6-Fluoro-benzothiazol-2-ylamino)-phenyl]-isoxazole-5-carbothioyl}-amino)-3-methyl-butyric acid methyl ester] | 0 to 50 |

Now from value to molecule:

| inhibition at 10 µM [%] | Structure (SMILES) |
| --- | --- |
| 0 to 50 | CCOC(=O)c1cc(-c2cccc(Nc3nc4ccc(F)cc4s3)c2)no1 [Example 20, 3-[3-(6-Fluoro-benzothiazol-2-ylamino)-phenyl]-isoxazole-5-carboxylic acid ethyl ester] |
| 0 to 50 | CC(C)[C@H](NC(=NO)c1cc(-c2cccc(Nc3nc4ccc(F)cc4s3)c2)no1)C(=O)O [Example 27, (S)-2-({3-[3-(6-Fluoro-benzothiazol-2-ylamino)-phenyl]-N-hydroxy-isoxazole-5-carboximidoyl}-amino)-3-methyl-butyric acid] |
| 0 to 50 | COC[C@H](NC(=O)c1cc(-c2cccc(Nc3nc4ccc(F)cc4s3)c2)no1)C(=O)O [Example 29, (S)-2-({3-[3-(6-Fluoro-benzothiazol-2-ylamino)-phenyl]-isoxazole-5-carbonyl}-amino)-3-methoxy-propionic acid] |
| 0 to 50 | COC[C@H](NC(=S)c1cc(-c2cccc(Nc3nc4ccc(F)cc4s3)c2)no1)C(=O)OC [Example 30, (S)-2-({3-[3-(6-Fluoro-benzothiazol-2-ylamino)-phenyl]-isoxazole-5-carbothioyl}-amino)-3-methoxy-propionic acid methyl ester] |
| 0 to 50 | COC[C@H](NC(=NO)c1cc(-c2cccc(Nc3nc4ccc(F)cc4s3)c2)no1)C(=O)OC [Example 32, (S)-2-({3-[3-(6-Fluoro-benzothiazol-2-ylamino)-phenyl]-N-hydroxy-isoxazole-5-carboximidoyl}-amino)-3-methoxy-propionic acid methyl ester] |
| 0 to 50 | COC[C@H](NC(=NO)c1cc(-c2cccc(Nc3nc4ccc(F)cc4s3)c2)no1)C(=O)O [Example 33, (S)-2-({3-[3-(6-Fluoro-benzothiazol-2-ylamino)-phenyl]-N-hydroxy-isoxazole-5-carboximidoyl}-amino)-3-methoxy-propionic acid] |
| 50 to 75 | COC(=O)[C@@H]1CCCN1C(=S)c1cc(-c2cccc(Nc3nc4ccc(F)cc4s3)c2)no1 [Example 36, (S)-1-{3-[3-(6-Fluoro-benzothiazol-2-ylamino)-phenyl]-isoxazole-5-carbothioyl}-pyrrolidine-2-carboxylic acid methyl ester] |
